Source: PMC9124818 (Pharmacology Research & Perspectives, 2022)
Like-named read-outs stand apart in the source and are kept apart here.

How the values were obtained:
CYP1A2 mRNA = assay: CYP450 induction in cultured human hepatocytes, mRNA by qRT-PCR; type: cell-based; conditions: all three hepatocyte cultures; FFA up to 40 μM, nFFA 50 μM
Method: Each PCR was performed in triplicate.

CYP3A4/5 = assay: Direct CYP450 inhibition in human liver microsomes (midazolam 1'-hydroxylation; testosterone 6β-hydroxylation); conditions: for IC50: both, human, pooled human liver microsomes; for Basic model: R1,gut: R1,gut = 1 + (Igut/Ki,u)
Description: (§1) A mixed‐gender pool of 200 individual human liver microsomal samples was used.
(§2) This LIMS utilizes the Levenberg-Marquardt algorithm to perform nonlinear regression fitting of the data to the following 4-parameter sigmoidal-logistic IC50 equation:
(§3) As percent of control values are utilized, the Min is set to 0 and the Max is set to 100 (or other values, as appropriate). […] Therefore, when an IC50 value falls outside the concentration range studied, the IC50 values are reported to be greater than the highest concentrations of test article evaluated.

CYP2B6 mRNA = assay: CYP450 induction in cultured human hepatocytes, mRNA by qRT-PCR; type: cell-based; conditions: for Basic kinetic model: R3: per FDA Guidance (2020); for EC50 at 3 days: human, cultured cryopreserved hepatocytes, ± standard error, read-out: Basic kinetic model: EC50
Method: Cells were then harvested to isolate RNA, which was analyzed by quantitative reverse transcription‐polymerase chain reaction (qRT‐PCR) for induction of CYP1A2, CYP2B6, and CYP3A4 mRNA levels. Total RNA was phase extracted with TRIzol followed by purification with an RNeasy Mini Kit (Qiagen Inc., Germantown, MD). Quantitative PCR was performed in triplicate with a 7900HT Fast Real Time PCR System, an Applied Biosystems Universal Master Mix, and TaqMan® Gene Expression Assays. The quantity of target cDNA relative to control cDNA (GAPDH) was determined by the ΔΔCT method (Applied Biosystems User Bulletin #2). Relative quantitation measures the change in mRNA expression in a test sample relative to that in the control sample (i.e., DMSO). This method assumes that the efficiency of target amplification and the efficiency of endogenous control amplification are approximately equal.
mRNA assessment was conducted using a quantitative reverse transcription-polymerase chain reaction (qRT-PCR) according to the Applied Biosystems protocol. Each PCR was performed in triplicate. A Primer Mix was prepared for each Gene Expression assay. A typical Primer Mix contained TaqMan Fast Advanced Master Mix (1X), Gene Expression Assay (1X, 900 nM forward and reverse primers) and ribonuclease (RNase)-free water. The Reaction Mix was prepared by adding the Primer Mix to cDNA. A percentage of samples (no less than 10%) included NACs. […] The relative quantity of the target cDNA compared with that of the control cDNA (GAPDH) was determined by the ΔΔCt method (Applied Biosystems User Bulletin #2). Relative quantitation measures the change in mRNA expression in a test sample relative to that in a control sample (eg, dimethyl sulfoxide [DMSO]). This method assumes that the efficiency of the target amplification and the efficiency of the endogenous control amplification are approximately equal.
This software analyzes relative gene expression using the comparative Ct method (ΔΔCt), which relates the PCR signal of the target transcript to the PCR signal of the target in an untreated control. Both the treated sample and the untreated control signals are normalized to the endogenous control (GAPDH), for which expression is not affected by treatment and expression is constant throughout the tissue being tested.
The level of mRNA expression relative to the positive control was calculated as follows: […]

P‐gp = target: T1, P‐gp (Homo sapiens, UniProt P08183); assay: Transporter inhibition, bidirectional permeability of digoxin in Caco-2 cells; type: in vitro ADME
T1 construct: host or cells: Caco-2
T1 sequence (P08183 whole entry): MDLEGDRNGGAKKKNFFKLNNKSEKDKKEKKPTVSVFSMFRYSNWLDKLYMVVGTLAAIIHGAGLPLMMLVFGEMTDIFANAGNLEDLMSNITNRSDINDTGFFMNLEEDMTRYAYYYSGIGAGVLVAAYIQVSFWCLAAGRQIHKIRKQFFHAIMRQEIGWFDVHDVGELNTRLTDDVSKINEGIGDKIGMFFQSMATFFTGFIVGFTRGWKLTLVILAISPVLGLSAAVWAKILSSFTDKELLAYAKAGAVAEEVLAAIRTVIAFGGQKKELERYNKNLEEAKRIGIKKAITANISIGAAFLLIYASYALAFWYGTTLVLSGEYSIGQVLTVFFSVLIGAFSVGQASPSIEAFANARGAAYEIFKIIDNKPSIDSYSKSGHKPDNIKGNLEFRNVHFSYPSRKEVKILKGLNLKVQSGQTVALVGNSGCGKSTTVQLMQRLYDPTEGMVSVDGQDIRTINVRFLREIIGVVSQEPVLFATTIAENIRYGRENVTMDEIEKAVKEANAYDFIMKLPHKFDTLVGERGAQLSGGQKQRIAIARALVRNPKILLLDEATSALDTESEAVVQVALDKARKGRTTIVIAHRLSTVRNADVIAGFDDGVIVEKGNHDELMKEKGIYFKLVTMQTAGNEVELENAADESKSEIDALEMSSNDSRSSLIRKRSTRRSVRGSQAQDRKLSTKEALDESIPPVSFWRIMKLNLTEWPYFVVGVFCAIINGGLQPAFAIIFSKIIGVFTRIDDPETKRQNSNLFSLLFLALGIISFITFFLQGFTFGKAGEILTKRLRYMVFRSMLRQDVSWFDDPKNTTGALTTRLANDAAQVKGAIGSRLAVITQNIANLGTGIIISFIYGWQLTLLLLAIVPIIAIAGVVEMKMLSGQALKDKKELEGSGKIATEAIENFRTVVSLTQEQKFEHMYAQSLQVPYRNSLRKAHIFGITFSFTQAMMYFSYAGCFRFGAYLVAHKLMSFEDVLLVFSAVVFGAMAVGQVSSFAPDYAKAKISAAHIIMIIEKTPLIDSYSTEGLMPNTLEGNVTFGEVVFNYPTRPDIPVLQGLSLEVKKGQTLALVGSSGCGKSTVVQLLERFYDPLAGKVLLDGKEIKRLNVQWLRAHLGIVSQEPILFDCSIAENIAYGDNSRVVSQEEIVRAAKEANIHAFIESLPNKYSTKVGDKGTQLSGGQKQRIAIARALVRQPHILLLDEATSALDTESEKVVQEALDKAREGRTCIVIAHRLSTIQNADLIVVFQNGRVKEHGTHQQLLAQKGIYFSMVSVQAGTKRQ
Method: The test compound (FFA or nFFA) or the positive control substrate ([…], respectively) was added to the donor chamber. […] Cells were then washed, lysed with scintillation cocktail, and analyzed for the probe substrate with a MicroBeta scintillation counter (PerkinElmer, Hopkinton, MA). Transcellular transporter assay conditions are described in Supplemental Table 1. Calculation of IC50 values was based on bidirectional permeability of probe substrate with and without the inhibitor in MDCKII cells expressing BCRP and in Caco‐2 cells expressing P‐gp, and transporter‐dependent uptake of probe substrate in HEK293 cells expressing all other transporters (Supplemental Table 1).
The net flux for human epithelial colorectal adenocarcinoma cells (Caco-2; P-gp) and MDCKII-BCRP inhibition determination was calculated according to the equation: […]

CYP2B6 = target: T2, CYP2B6 (Homo sapiens, UniProt P20813); assay: Direct CYP450 inhibition in human liver microsomes (efavirenz 8-hydroxylation)
T2 sequence (P20813 1-491): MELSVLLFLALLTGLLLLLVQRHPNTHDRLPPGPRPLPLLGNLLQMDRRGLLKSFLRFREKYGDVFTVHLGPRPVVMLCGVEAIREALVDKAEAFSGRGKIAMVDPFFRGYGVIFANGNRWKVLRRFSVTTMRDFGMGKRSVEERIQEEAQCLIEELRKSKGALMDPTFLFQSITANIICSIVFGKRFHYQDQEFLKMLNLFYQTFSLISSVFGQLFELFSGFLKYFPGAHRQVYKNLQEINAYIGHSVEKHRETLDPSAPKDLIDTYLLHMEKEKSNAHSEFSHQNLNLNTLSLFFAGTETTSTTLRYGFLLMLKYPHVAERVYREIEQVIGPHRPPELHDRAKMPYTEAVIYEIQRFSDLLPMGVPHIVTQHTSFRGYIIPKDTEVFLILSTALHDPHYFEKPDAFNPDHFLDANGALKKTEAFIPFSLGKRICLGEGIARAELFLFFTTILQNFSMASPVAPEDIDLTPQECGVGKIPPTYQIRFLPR
Description: as §1, §2, §3

[1] = Pharmacokinetic input parameters of the mechanistic static model (population pharmacokinetics)
CYP2D6 = CYP2D6 (Homo sapiens, UniProt P10635); assay: Direct CYP450 inhibition in human liver microsomes (dextromethorphan O-demethylation)
Sequence of CYP2D6 (P10635 whole entry): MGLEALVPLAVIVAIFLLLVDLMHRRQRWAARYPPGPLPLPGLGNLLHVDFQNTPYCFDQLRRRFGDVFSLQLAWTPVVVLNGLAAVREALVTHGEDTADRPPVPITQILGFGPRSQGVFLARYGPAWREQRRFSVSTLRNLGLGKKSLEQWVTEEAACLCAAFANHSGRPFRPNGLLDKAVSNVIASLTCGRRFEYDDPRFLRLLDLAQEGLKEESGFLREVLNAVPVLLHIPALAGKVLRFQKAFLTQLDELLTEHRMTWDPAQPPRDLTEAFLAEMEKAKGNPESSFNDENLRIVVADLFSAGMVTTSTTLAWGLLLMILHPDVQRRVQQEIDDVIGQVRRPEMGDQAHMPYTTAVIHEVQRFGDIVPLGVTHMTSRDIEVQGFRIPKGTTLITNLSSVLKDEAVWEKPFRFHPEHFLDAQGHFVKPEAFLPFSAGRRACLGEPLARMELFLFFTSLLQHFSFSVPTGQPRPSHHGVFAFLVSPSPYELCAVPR
Method: Microsomes from non‐transplantable human livers were prepared and characterized as outlined previously.[25], [26] A mixed‐gender pool of 200 individual human liver microsomal samples was used. Substrate concentrations and incubation conditions for determination of the kinetic constant (S50 or Km) used to select marker substrate concentrations were previously determined.[24]
Summary data are expressed as percent of control and mean ± standard deviation (SD) or standard error of the mean (SEM), as appropriate. Individual values from inhibition studies were processed with the laboratory information management system (LIMS) Galileo v3.3 (Thermo Fisher Scientific), which was used to calculate IC50 values from a four‐parameter logistic regression applied to percent inhibition versus concentration values. […] Based on FDA guidance for metabolism‐ and transporter‐mediated DDI studies,[15] basic kinetic models for transporter inhibition, CYP450 inhibition, and CYP450 induction were employed to calculate R, R1, and R3 values, respectively, and were compared to the respective predetermined threshold values listed in the guidance document.[15] […] Plasma protein binding data were used to estimate input parameters for fraction unbound to plasma proteins in the mechanistic static model (Supplemental Table 2). The fraction absorbed was assumed to be 100%, yielding the highest possible portal concentrations. […] Assays were performed in duplicate or triplicate according to previously published reports. Statistical analysis for replicates was not possible with n = 2 sample sizes.
as §2, §3

CCNC(C)Cc1cccc(C(F)(F)F)c1 (racemic) [FFA, (RS)‐ethyl(α‐methyl‐3‐trifluoromethylphenethyl)amine, reference compound]
% as effective as the positive control, omeprazole (CYP1A2 mRNA) (CYP1A2 mRNA): < 20%
IC50 (CYP3A4/5; pH 7.4, probe midazolam (1'-hydroxylation)): > 600 µM
IC50 (CYP3A4/5; pH 7.4, probe testosterone (6β-hydroxylation)): > 600 µM
Basic model: Potential for clinical inhibition (R1) (CYP3A4/5; substrate midazolam): No No ^b (Potential to inhibit if R1 ≥ 1.02)
Basic model: Potential for clinical inhibition (R1,gut) (CYP3A4/5; substrate midazolam): No No ^b (Potential to inhibit if R1,gut ≥ 11)
Static mechanistic model: Potential for clinical inhibition (CYP3A4/5; substrate midazolam): No (Potential to inhibit if AUCR ≥ 1.25)
Basic model: R1,gut (CYP3A4/5; substrate midazolam): NC R1,gut = 1.78
Basic model: Potential for clinical inhibition (R1) (CYP3A4/5; substrate testosterone): No No ^b (Potential to inhibit if R1 ≥ 1.02)
Basic model: Potential for clinical inhibition (R1,gut) (CYP3A4/5; substrate testosterone): No No ^b (Potential to inhibit if R1,gut ≥ 11)
Static mechanistic model: Potential for clinical inhibition (CYP3A4/5; substrate testosterone): No (Potential to inhibit if AUCR ≥ 1.25)
Basic model: R1,gut (CYP3A4/5; substrate testosterone): 1.81
Basic model: R1 (CYP3A4/5; substrate testosterone, R1 = 1 + (Imax,u/Ki,u)): 1.00
CYP2B6 induction (abstract) (CYP2B6 mRNA; cultured human hepatocytes): up to 2.8 fold
Basic kinetic model: Potential to induce (CYP2B6 mRNA; hepatocytes HC7‐8): No
Static mechanistic model: Potential to induce (CYP2B6 mRNA; hepatocytes HC7‐8): No (AUCR <0.8 to denote induction)
Basic kinetic model: R3 (CYP2B6 mRNA; hepatocytes HC7‐8): 0.87
Basic kinetic model: Potential to induce (CYP2B6 mRNA; hepatocytes HC10‐8): Yes
Static mechanistic model: Potential to induce (CYP2B6 mRNA; hepatocytes HC10‐8): No (AUCR <0.8 to denote induction)
Basic kinetic model: R3 (CYP2B6 mRNA; hepatocytes HC10‐8): 0.77
Basic kinetic model: Potential to induce (CYP2B6 mRNA; hepatocytes HC10‐10): Yes
Static mechanistic model: Potential to induce (CYP2B6 mRNA; hepatocytes HC10‐10): No (AUCR <0.8 to denote induction)
Basic kinetic model: R3 (CYP2B6 mRNA; hepatocytes HC10‐10): 0.76
EC50 at 3 days (CYP2B6 mRNA; lot HC7-8, hepatocytes HC7‐8): 8.32 ± 2.1 µM
EC50 at 3 days (CYP2B6 mRNA; lot HC10-8, hepatocytes HC10‐8): 13.6 ± 1.5 µM
EC50 at 3 days (CYP2B6 mRNA; lot HC10-10, hepatocytes HC10‐10): 4.61 ± 3.3 µM
IC50 (P‐gp): > 100 µM
IC50 (CYP2B6): > 60 µM
Inhibition (%) (CYP2B6; direct inhibition, substrate efavirenz, FFA up to 60 µM, nFFA up to 100 µM): 6.1%
Basic model: Potential for clinical inhibition (CYP2B6; substrate efavirenz): No (Potential to inhibit if R1 ≥ 1.02)
Static mechanistic model: Potential for clinical inhibition (CYP2B6; substrate efavirenz): No (Potential to inhibit if AUCR ≥ 1.25)
Basic model: R1 (CYP2B6; substrate efavirenz, R1 = 1 + (Imax,u/Ki,u)): 1.01
Portal inlet [I]h ([1]; calculated as (Imax + (Fa × Fg × ka × molar dose) / Qh) / Rb): 0.362 µM
Cmax, unbound ([1]; calculated as Cmax, total (ng/mL)/MW * fu): 162 nM
IC50 (CYP2D6): 4.7 ± 0.2 µM
Ki (CYP2D6): 2.17 µM
Inhibition (%) (CYP2D6; direct inhibition, substrate dextromethorphan, FFA up to 60 µM, nFFA up to 100 µM): 90%
Ah (guidance term) (CYP2D6; mechanistic static model, Supplemental Table 2): 0.867
Basic model: Potential for clinical inhibition (CYP2D6; substrate dextromethorphan): Yes (Potential to inhibit if R1 ≥ 1.02)
Static mechanistic model: Potential for clinical inhibition (CYP2D6; substrate dextromethorphan): No (Potential to inhibit if AUCR ≥ 1.25)
Basic model: R1 (CYP2D6; substrate dextromethorphan, R1 = 1 + (Imax,u/Ki,u)): 1.07
